A word on the pEC50: it is −log10 of the EC50, conventionally taken in molar units. Read a high pEC50 as a small EC50.

These results are taken from patent publication US20230271941A1, “COMPOUNDS AND COMPOSITIONS FOR TREATING CONDITIONS ASSOCIATED WITH STING ACTIVITY” (IFM Due, Inc., priority 2020, published 2023).

In the assay the target is T1, hSTING (Homo sapiens, UniProt Q86WV6, G230A/H232R/R293Q/R71H).
T1 construct: host or cells: THP1-Dual KO-IFNAR2 cells
The assay can be described thus: STING reporter assay: THP1-Dual KO-IFNAR2 cells stimulated with 2′3′cGAMP, luciferase reporter activity. Format: cell-based. As to conditions: 15 μM 2′3′cGAMP transfected with Lipofectamine 2000, 24 h, luciferase reporter (QUANTI-Luc). The protocol:
STING pathway activation by the compounds described herein was measured using THP1-Dual™ cells (KO-IFNAR2).
THP1-Dual™ KO-IFNAR2 Cells (obtained from invivogen) were maintained in RPMI, 10% FCS, 5 ml P/S, 2 mM L-glut, 10 mM Hepes, and 1 mM sodium pyruvate. Compounds were spotted in empty 384 well tissue culture plates (Greiner 781182) by Echo for a final concentration of 0.0017-100 μM. Cells were plated into the TC plates at 40 μL per well, 2×10E6 cells/mL. For activation with STING ligand, 2′3′cGAMP (MW 718.38, obtained from Invivogen), was prepared in Optimem media.
The following solutions were prepared for each 1×384 plate: • Solution A: 2 mL Optimem with one of the following stimuli: • 60 μL of 10 mM 2′3′cGAMP→150 μM stock • Solution B: 2 mL Optimem with 60 μL Lipofectamine 2000→Incubate 5 min at RT
2 mL of solution A and 2 ml Solution B was mixed and incubated for 20 min at room temperature (RT). 20 μL of transfection solution (A+B) was added on top of the plated cells, with a final 2′3′cGAMP concentration of 15 μM. The plates were then centrifuged immediately at 340 g for 1 minute, after which they were incubated at 37° C., 5% CO2, >98% humidity for 24 h. Luciferase reporter activity was then measured. EC50 values were calculated by using standard methods known in the art.
Luciferase reporter assay: 10 μL of supernatant from the assay was transferred to white 384-plate with flat bottom and squared wells. One pouch of QUANTI-Luc™ Plus was dissolved in 25 mL of water. 100 μL of QLC Stabilizer per 25 mL of QUANTI-Luc™Plus solution was added. 50 μL of QUANTI-Luc™ Plus/QLC solution per well was then added. Luminescence was measured on a Platereader (e.g., Spectramax I3X (Molecular Devices GF3637001)).
Luciferase reporter activity was then measured. EC50 values were calculated by using standard methods known in the art.

pEC50: −log10 of the molar value.

T1 sequence (Q86WV6 whole entry R71H/G230A/H232R/R293Q): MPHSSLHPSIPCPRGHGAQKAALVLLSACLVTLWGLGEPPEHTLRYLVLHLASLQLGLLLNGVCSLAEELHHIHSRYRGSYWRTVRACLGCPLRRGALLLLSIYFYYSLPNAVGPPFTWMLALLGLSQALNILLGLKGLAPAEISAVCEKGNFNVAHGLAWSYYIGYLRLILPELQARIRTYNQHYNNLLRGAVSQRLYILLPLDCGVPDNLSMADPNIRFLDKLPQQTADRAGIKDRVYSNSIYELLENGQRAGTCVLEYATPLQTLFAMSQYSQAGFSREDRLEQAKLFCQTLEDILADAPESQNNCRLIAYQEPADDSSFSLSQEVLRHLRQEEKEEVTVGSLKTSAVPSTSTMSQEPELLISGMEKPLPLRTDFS

For `Cc1cc(-n2cc(C(=O)Nc3c[nH]c4cc(F)c(F)cc34)nn2)cnc1OCC(F)(F)F` [Compound 165, N-(5,6-difluoro-1H-indol-3-yl)-1-(5-methyl-6-(2,2,2-trifluoroethoxy)pyridin-3-yl)-1H-1,2,3-triazole-4-carboxamide], the pEC50 is 6.00 to 6.70.
`O=C(Nc1c[nH]c2cc(F)ccc12)c1cnn(Cc2ccc(C(F)(F)F)cc2)c1` [Compound 143, N-(6-fluoro-1H-indol-3-yl)-1-(4-(trifluoromethyl)benzyl)-1H-pyrazole-4-carboxamide] had a pEC50 of 6.00 to 6.70.
Take `O=C(Nc1c[nH]c2cc(F)c(F)cc12)c1cn(Cc2ccc(C(F)(F)F)cc2)nn1` [Compound 105, N-(5,6-difluoro-1H-indol-3-yl)-1-(4-(trifluoromethyl)benzyl)-1H-1,2,3-triazole-4-carboxamide]: the pEC50 was 6.00 to 6.70.
The same measure for `O=C(Nc1c[nH]c2cc(F)c(F)cc12)c1cc(-c2cccc(Cl)c2)[nH]n1` [Compound 174, 5-(3-chlorophenyl)-N-(5,6-difluoro-1H-indol-3-yl)-1H-pyrazole-3-carboxamide]: 6.00 to 6.70; for `O=C(Nc1c[nH]c2cc(F)c(F)cc12)c1ncn(-c2ccccc2)n1` [Compound 110, N-(5,6-difluoro-1H-indol-3-yl)-1-phenyl-1H-1,2,4-triazole-3-carboxamide]: 6.70 to 7.40; for `COc1cncc2c(NC(=O)c3cnn(Cc4ccc(C(F)(F)F)cc4)c3)c[nH]c12` [Compound 117, N-(7-methoxy-1H-pyrrolo[3,2-c]pyridin-3-yl)-1-(4-(trifluoromethyl)benzyl)-1H-pyrazole-4-carboxamide]: 4.00 to 5.30.
Molecule `O=C(Nc1c[nH]c2cc(F)c(F)cc12)c1cc(-c2cc(F)cc(F)c2)[nH]n1` [Compound 173, N-(5,6-difluoro-1H-indol-3-yl)-5-(3,5-difluorophenyl)-1H-pyrazole-3-carboxamide] showed a negative logarithm of the EC50 (pEC50) of 6.00 to 6.70.
In the case of `Cc1cncc2c(NC(=O)c3cnn(Cc4ccc(C(F)(F)F)cc4)c3)c[nH]c12` [Compound 125, N-(7-methyl-1H-pyrrolo[3,2-c]pyridin-3-yl)-1-(4-(trifluoromethyl)benzyl)-1H-pyrazole-4-carboxamide], the pEC50 was 5.30 to 6.00.
To `O=C(Nc1c[nH]c2cc(F)c(F)cc12)c1cc(-c2ccc(Cl)cc2)n[nH]1` [Compound 108, 3-(4-chlorophenyl)-N-(5,6-difluoro-1H-indol-3-yl)-1H-pyrazole-5-carboxamide] belongs 6.00 to 6.70.
As for `COc1cc2[nH]cc(NC(=O)c3cnn(Cc4ccc(C(F)(F)F)cc4)c3)c2cn1` [Compound 126, N-(6-methoxy-1H-pyrrolo[3,2-c]pyridin-3-yl)-1-(4-(trifluoromethyl)benzyl)-1H-pyrazole-4-carboxamide], the negative-log EC50 (pEC50) is 5.30 to 6.00.
As for `CC(C)(O)CCc1ncc(-n2cc(C(=O)Nc3c[nH]c4cc(F)c(F)cc34)nn2)cc1F` [Compound 179, N-(5,6-difluoro-1H-indol-3-yl)-1-[5-fluoro-6-(3-hydroxy-3-methylbutyl)pyridin-3-yl]-1H-1,2,3-triazole-4-carboxamide], the pEC50 was 4.00 to 5.30.
Take `O=C(Nc1c[nH]c2cc(F)c(F)cc12)c1cc(-c2ccc(Cl)cc2)on1` [Compound 167, 5-(4-chlorophenyl)-N-(5,6-difluoro-1H-indol-3-yl)isoxazole-3-carboxamide]: the negative logarithm of the EC50 (pEC50) was 6.00 to 6.70.
`O=C(Nc1c[nH]c2cc(F)c(F)cc12)c1ccnn1CCOc1cccnc1` [Compound 127, N-(5,6-difluoro-1H-indol-3-yl)-1-(2-(pyridin-3-yloxy)ethyl)-1H-pyrazole-5-carboxamide] had a pEC50 of 4.00 to 5.30.
